Measurements taken from patent US9567336B2, “Conjugated TLR7 and/or TLR8 and TLR2 agonists” (CAYLA, priority 2012, dated 2017).

Assays:
human TLR7 = target: T1, human TLR7 (Homo sapiens, UniProt Q9NYK1); experiment: HEK-Blue hTLR7 NF-κB/AP-1 SEAP reporter cell assay; assay type: cell-based; details: HEK-Blue hTLR7 reporter cells, 10 μg/mL to 10 pg/ml, 24 hours, OD at 655 nm; FIGS. 1A, 1B
T1 construct: host or cells: HEK293 (HEK-Blue hTLR7)
T1 sequence (Q9NYK1 27-1049): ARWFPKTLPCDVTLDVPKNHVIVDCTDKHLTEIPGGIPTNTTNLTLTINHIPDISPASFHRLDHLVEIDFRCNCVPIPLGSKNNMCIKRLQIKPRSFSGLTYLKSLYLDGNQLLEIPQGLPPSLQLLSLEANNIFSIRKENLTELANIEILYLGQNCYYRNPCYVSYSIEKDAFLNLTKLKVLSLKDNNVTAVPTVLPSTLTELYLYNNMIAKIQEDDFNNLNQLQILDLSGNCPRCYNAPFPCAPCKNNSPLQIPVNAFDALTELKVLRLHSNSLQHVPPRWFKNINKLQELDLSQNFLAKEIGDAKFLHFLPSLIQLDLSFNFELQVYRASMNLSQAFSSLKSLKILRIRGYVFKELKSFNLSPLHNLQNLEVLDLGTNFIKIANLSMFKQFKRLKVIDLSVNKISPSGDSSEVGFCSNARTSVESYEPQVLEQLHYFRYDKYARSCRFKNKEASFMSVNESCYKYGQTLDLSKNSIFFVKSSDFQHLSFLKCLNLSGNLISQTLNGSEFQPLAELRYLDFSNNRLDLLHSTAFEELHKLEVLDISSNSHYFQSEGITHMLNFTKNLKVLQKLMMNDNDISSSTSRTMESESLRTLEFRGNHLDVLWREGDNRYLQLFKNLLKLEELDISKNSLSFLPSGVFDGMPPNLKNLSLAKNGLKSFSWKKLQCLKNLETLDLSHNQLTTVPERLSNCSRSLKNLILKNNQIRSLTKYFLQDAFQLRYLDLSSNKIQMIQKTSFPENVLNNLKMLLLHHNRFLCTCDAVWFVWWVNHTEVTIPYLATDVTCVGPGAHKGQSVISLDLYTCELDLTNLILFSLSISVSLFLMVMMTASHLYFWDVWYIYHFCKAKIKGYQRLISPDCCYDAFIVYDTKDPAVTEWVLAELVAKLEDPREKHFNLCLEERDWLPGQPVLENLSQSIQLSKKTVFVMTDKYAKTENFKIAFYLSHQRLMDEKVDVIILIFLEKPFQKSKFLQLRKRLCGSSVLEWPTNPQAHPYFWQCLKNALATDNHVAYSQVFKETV
Description: (§1) Some conjugated compounds of the invention were tested for their ability to activate TLR7 and TLR2 receptor signaling. Cell-based assays were carried out using TLR7 and TLR2 reporter cell lines (InvivoGen). The reporter cell lines are engineered HEK293 cells, a human embryonic kidney cell line (ATCC, CRL-1573) that stably express either murine TLR7 (HEK-Blue™ mTLR7) or human TLR7 (HEK-Blue™ hTLR7) or murine TLR2 (HEK-Blue™ mTLR2) or human TLR2 (HEK-Blue™ hTLR2) with an NF-κB-inducible secreted embryonic alkaline phosphatase (SEAP) as the reporter gene. The SEAP reporter gene is placed under the control of the NF-κB and AP-inducible promoter. Stimulation with the corresponding TLR ligand activates NF-κB and AP-1, which induces the production of SEAP. Detection of SEAP is measured following culturing cells in HEK-Blue™ Detection media (InvivoGen). HEK-Blue™ Detection contains a SEAP substrate, which upon hydrolysis by SEAP produces a colorimetric change allowing for detection of SEAP as the protein is secreted. […] These assays were carried out using RAW-Blue™ Cells (InvivoGen), derived from RAW 264.7 mouse leukemic monocytic macrophage cell line (ATCC, CRL 2278) stably overexpressing a NF-κB/AP-1 inducible SEAP reporter constructs.
(§2) To perform the assay, cells were seeded on 96 well microliter plates at 50,000 or 100,000 cells per well for HEK-Blue™ Cells and RAW-Blue™ Cells respectively, and cultured at 37° C. in the presence of the conjugated compounds. The conjugated compounds were prepared as follows: First, stock solutions of the small molecule conjugated compounds of the invention were prepared in ethanol or water to a concentration of 10 mg/ml. A working dilution of the conjugated TLR7-TLR2 small molecules was made up in water and added to cells at a final range of concentrations from 10 μg/mL to 10 pg/ml. The working dilutions of the conjugated TLR7-TLR2 small molecules as the stated concentrations were directly added to the reporter cell lines and incubated at 37° C. for 24 hours. After 24 hours of incubation, the effect on reporter gene activity was determined by reading the OD at 655 nm using iMark™ Microplate Reader (BIO-RAD).
(§3) The conjugated compounds were tested alone for their ability to specifically activate TLR7 and TLR2, alongside the known TLR7 activators R848 or CL264 (InvivoGen) and the TLR2 agonists Pam2CSK4 or Pam3CSK4 (InvivoGen). The specificity of the TLR activity was determined by use of reporter cell lines to the other TLRs (data not shown). […] The molecules show a tendency to activate mouse TLR7 with greater sensitivity than human TLR7. […] Furthermore, dose-dependent responses of the conjugated compounds indicate significant TLR activities of TLR7 and TLR2 compared to the corresponding controls.

human TLR2 = target: T2, human TLR2 (Homo sapiens, UniProt O60603); experiment: HEK-Blue hTLR2 NF-κB/AP-1 SEAP reporter cell assay; assay type: cell-based; details: HEK-Blue hTLR2 reporter cells, 10 μg/mL to 10 pg/ml, 24 hours, OD at 655 nm; FIGS. 3A, 3B
T2 construct: host or cells: HEK293 (HEK-Blue hTLR2)
T2 sequence (O60603 21-784): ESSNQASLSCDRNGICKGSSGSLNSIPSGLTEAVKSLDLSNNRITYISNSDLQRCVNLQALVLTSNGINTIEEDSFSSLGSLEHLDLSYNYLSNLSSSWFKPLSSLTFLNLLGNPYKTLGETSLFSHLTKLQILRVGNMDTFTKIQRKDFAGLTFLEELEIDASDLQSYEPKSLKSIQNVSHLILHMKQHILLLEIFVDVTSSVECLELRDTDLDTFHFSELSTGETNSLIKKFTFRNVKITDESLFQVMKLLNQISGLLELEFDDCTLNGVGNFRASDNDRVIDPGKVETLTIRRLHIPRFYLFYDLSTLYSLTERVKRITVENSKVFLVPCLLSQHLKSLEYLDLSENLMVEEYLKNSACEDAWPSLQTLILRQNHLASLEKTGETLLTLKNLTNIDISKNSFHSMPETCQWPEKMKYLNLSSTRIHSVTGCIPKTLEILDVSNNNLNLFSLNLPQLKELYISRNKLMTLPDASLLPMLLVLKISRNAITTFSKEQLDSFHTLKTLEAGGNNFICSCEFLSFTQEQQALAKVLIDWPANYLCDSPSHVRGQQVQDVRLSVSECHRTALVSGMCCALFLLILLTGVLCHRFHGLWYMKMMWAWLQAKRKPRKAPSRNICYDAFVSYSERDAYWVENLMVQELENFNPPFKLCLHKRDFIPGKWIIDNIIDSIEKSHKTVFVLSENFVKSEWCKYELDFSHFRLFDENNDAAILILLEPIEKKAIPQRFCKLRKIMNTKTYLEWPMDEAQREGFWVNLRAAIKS
Description: as §1, §2, §3

B16-F1 cells = experiment: B16-F1 allograft tumor mouse model, intra-tumoral injections; assay type: in vivo, C57BL/6 mice; details: 3 intra-tumoral injections
Description: To investigate whether administering in vivo a therapeutically effective amount of a composition concerned by the invention into a tumor environment affects tumor growth, C57BL/6 mice (Janvier S.A.S.) were shaved (on their backs) and were injected subcutaneously with approximately 50 μl (5×10^5) of viable B16-F1 cells (ATCC, CRL-6323) under anesthesia, using 7 mice per group. Once the tumor volume reached about 5 mm in diameter, around day 7 after tumor cells were grafted, the mice were divided into 2 groups. A first group (control) received intra-tumoral injections of vehicle (Glucose 5% ethanol 8% that is often used to facilitate drug solubilization and so enhance delivery), for a total of 3 injections. All animal work was carried out at the animal facility at the Institut de Pharmacologie et de Biologie Structurale (IPBS) in Toulouse, in accordance with institutional guidelines. […] By day 51 following the tumor cell graft, 60% of mice in the CL401 conjugated TLR7-TLR2 small molecule treated group were still alive. In contrast, by day 26, there was no survival of mice from the control group of vehicle treated. Tumor growth was monitored and measured with calipers after day 5 of grafting tumor cells into mice and then every 2 days after. […] Tumor volume in mm^3 was determined according to the formula V=W^2×L/2, where L=length (mm) and W=width (mm)

## CCCCCCCCCCCCCCCC(=O)OCC(CSC[C@H](N)C(=O)Nc1ccc(Cn2c(O)nc3c(N)nc(NCCCC)nc32)cc1)OC(=O)CCCCCCCCCCCCCCC (mixture of isomers) [CL401, (R)-3-(2-amino-3-(4-((6-amino-2-(butylamino)-8-hydroxy-9H-purin-9-yl)methyl)phenylamino)-3-oxopropylthio)propane-1,2-diyl dipalmitate]
Human TLR7
  ability to activate TLR7 receptors (human TLR7): activate TLR7 receptors
Human TLR2
  ability to activate TLR2 receptor (human TLR2): activate TLR2 receptor
B16-F1 cells; by day 51 following the tumor cell graft, FIG. 6B
  mice still alive (survival): 60%
B16-F1 cells; compared to vehicle control mice, FIG. 6A
  tumor growth: significantly reduced
